Reference: patent US12226412B2, “Heteroaryl-ketone fused azadecalin glucocorticoid receptor modulators” (Corcept Therapeutics, Inc., priority 2012, dated 2025)
pKi: −log10 of the molar value. Like-named read-outs stand apart in the source and are kept apart here.

Assays:
[1] = test system: induction of TAT by dexamethasone in HepG2 cells; assay: HepG2 tyrosine aminotransferase (TAT) assay; format: cell-based, human
[2] = biological target: T1, human recombinant GR (Homo sapiens, UniProt P04150); assay: Human glucocorticoid receptor (GR) fluorescence polarisation (FP) binding assay
T1 construct: purchased PanVera P2812
T1 sequence (P04150 1-777): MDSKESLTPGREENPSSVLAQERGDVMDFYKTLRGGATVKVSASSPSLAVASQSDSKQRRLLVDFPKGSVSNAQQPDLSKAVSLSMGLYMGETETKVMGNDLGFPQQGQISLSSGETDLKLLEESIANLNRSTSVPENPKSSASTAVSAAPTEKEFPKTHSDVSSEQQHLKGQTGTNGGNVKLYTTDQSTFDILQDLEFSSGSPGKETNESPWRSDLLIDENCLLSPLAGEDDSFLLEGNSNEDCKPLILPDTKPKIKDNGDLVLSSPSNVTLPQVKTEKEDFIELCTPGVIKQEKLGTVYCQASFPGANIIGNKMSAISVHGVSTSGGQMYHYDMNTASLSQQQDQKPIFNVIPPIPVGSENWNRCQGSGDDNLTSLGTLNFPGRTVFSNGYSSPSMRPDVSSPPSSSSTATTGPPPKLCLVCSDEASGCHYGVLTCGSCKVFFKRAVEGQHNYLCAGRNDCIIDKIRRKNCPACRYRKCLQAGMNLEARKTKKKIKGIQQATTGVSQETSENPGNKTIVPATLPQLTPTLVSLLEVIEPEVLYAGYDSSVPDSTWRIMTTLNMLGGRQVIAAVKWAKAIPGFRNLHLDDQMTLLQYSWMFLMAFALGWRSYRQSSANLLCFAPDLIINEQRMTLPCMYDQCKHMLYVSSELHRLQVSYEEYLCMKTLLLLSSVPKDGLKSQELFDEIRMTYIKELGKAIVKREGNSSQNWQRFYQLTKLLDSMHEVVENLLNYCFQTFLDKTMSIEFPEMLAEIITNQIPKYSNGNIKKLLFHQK
Summary of the method: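 Competition fluorescence polarisation: 0.5 nM GS Red labelled glucocorticoid and 1 nM recombinant human GR with 8-point half-log compound series, 1% DMSO, 4 h room temperature, potassium phosphate pH 7.4 buffer with molybdate, EDTA, DTT. Affinity derived from the drop in polarisation, normalised to blank wells.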

[3] = HepG2 cells, challenge of 100 nM dexamethasone, Ki from IC50 by Cheng and Prusoff equation
[4] = human recombinant GR, fluorescence polarisation binding assay, read-out: GR binding

Work on `O=C(c1nccs1)[C@]12Cc3cnn(-c4ccc(F)cc4)c3C=C1CCN(S(=O)(=O)c1cncc(N3CCCC3)c1)C2` [Example 7A, (R)-(1-(4-fluorophenyl)-6-((5-(pyrrolidin-1-yl)pyridin-3-yl)sulfonyl)-4,4a,5,6,7,8-hexahydro-1H-pyrazolo[3,4-g]isoquinolin-4a-yl)(thiazol-2-yl)methanone] yielded a pKi [1, 3] of 7.00 to 7.70 and a pKi [2, 4] greater than 9.30.

`O=C(c1ccccn1)[C@]12Cc3cnn(-c4ccc(F)cc4)c3C=C1CCN(S(=O)(=O)c1ccc(N3CCCC3)nc1)C2` [Example 8, (R)-(1-(4-fluorophenyl)-6-((6-(pyrrolidin-1-yl)pyridin-3-yl)sulfonyl)-4,4a,5,6,7,8-hexahydro-1H-pyrazolo[3,4-g]isoquinolin-4a-yl)(pyridin-2-yl)methanone] gave a pKi [1, 3] of no more than 7.00 and a pKi [2, 4] greater than 9.30.

`O=C(c1nccs1)[C@]12Cc3cnn(-c4ccc(F)cc4)c3C=C1CCN(S(=O)(=O)c1ccc(N3CC[C@@H](F)C3)nc1)C2` [Example 9, ((R)-1-(4-fluorophenyl)-6-((6-((R)-3-fluoropyrrolidin-1-yl)pyridin-3-yl)sulfonyl)-4,4a,5,6,7,8-hexahydro-1H-pyrazolo[3,4-g]isoquinolin-4a-yl)(thiazol-2-yl)methanone] was tested, and the pKi [1, 3] was no more than 7.00 and the pKi [2, 4] was greater than 9.30.

Compound `O=C(c1ccccn1)[C@]12Cc3cnn(-c4ccc(F)cc4)c3C=C1CCN(S(=O)(=O)c1ccc(N3CCCC3)cc1)C2` [Example 10, (R)-(1-(4-fluorophenyl)-6-((4-(pyrrolidin-1-yl)phenyl)sulfonyl)-4,4a,5,6,7,8-hexahydro-1H-pyrazolo[3,4-g]isoquinolin-4a-yl)(pyridin-2-yl)methanone] has a pKi [1, 3] of no more than 7.00 and a pKi [2, 4] greater than 9.30.

`O=C(c1ccccn1)[C@]12Cc3cnn(-c4ccc(F)cc4)c3C=C1CCN(S(=O)(=O)c1cncc(N3CCCC3)c1)C2` [Example 10B, (R)-(1-(4-fluorophenyl)-6-((5-(pyrrolidin-1-yl)pyridin-3-yl)sulfonyl)-4,4a,5,6,7,8-hexahydro-1H-pyrazolo[3,4-g]isoquinolin-4a-yl)(pyridin-2-yl)methanone] showed a pKi [1, 3] greater than 7.70 and a pKi [2, 4] greater than 9.30.

`O=C(c1cscn1)[C@]12Cc3cnn(-c4ccc(F)cc4)c3C=C1CCN(S(=O)(=O)c1ccc(C(F)(F)F)cc1)C2` [Example 11, (R)-(1-(4-fluorophenyl)-6-((4-(trifluoromethyl)phenyl)sulfonyl)-4,4a,5,6,7,8-hexahydro-1H-pyrazolo[3,4-g]isoquinolin-4a-yl)(thiazol-4-yl)methanone] showed a pKi [1, 3] of 7.00 to 7.70 and a pKi [2] greater than 9.30.

With `O=C(c1ccccn1)[C@]12Cc3cnn(-c4ccc(F)cc4)c3C=C1CCN(S(=O)(=O)c1ccc(Cl)cc1)C2` [Example 11A, (R)-(6-((4-chlorophenyl)sulfonyl)-1-(4-fluorophenyl)-4,4a,5,6,7,8-hexahydro-1H-pyrazolo[3,4-g]isoquinolin-4a-yl)(pyridin-2-yl)methanone] the pKi [1, 3] was greater than 7.70 and the pKi [2, 4] was greater than 9.30.

`COCc1cccc(S(=O)(=O)N2CCC3=Cc4c(cnn4-c4ccc(F)cc4)C[C@]3(C(=O)c3ccccn3)C2)c1` [Example 11AA, (R)-(1-(4-fluorophenyl)-6-((3-(methoxymethyl)phenyl)sulfonyl)-4,4a,5,6,7,8-hexahydro-1H-pyrazolo[3,4-g]isoquinolin-4a-yl)(pyridin-2-yl)methanone] was tested, and the pKi [1, 3] was 7.00 to 7.70 and the pKi [2, 4] was greater than 9.30.

`CN1CCOc2cc(S(=O)(=O)N3CCC4=Cc5c(cnn5-c5ccc(F)cc5)C[C@]4(C(=O)c4ccccn4)C3)cnc21` [Example 11AB, (R)-(1-(4-fluorophenyl)-6-((4-methyl-3,4-dihydro-2H-pyrido [3,2-b][1,4]oxazin-7-yl)sulfonyl)-4,4a,5,6,7,8-hexahydro-1H-pyrazolo[3,4-g]isoquinolin-4a-yl)(pyridin-2-yl)methanone] gave a pKi [1, 3] of 7.00 to 7.70 and a pKi [2, 4] greater than 9.30.

`O=C(c1ccccn1)[C@]12Cc3cnn(-c4ccc(F)cc4)c3C=C1CCN(S(=O)(=O)c1ccc(F)c(F)c1F)C2` [Example 11AC, (R)-(1-(4-fluorophenyl)-6-((2,3,4-trifluorophenyl)sulfonyl)-4,4a,5,6,7,8-hexahydro-1H-pyrazolo[3,4-g]isoquinolin-4a-yl)(pyridin-2-yl)methanone] showed a pKi [1, 3] greater than 7.70 and a pKi [2, 4] greater than 9.30.

In the case of `O=C(c1ccccn1)[C@]12Cc3cnn(-c4ccc(F)cc4)c3C=C1CCN(S(=O)(=O)c1cccc(C(F)(F)F)n1)C2` [Example 11AD, (R)-(1-(4-fluorophenyl)-6-((6-(trifluoromethyl)pyridin-2-yl)sulfonyl)-4,4a,5,6,7,8-hexahydro-1H-pyrazolo[3,4-g]isoquinolin-4a-yl)(pyridin-2-yl)methanone], the pKi [1, 3] was greater than 7.70 and the pKi [2, 4] was greater than 9.30.

`Cc1ccnc(C(=O)[C@]23Cc4cnn(-c5ccc(F)cc5)c4C=C2CCN(S(=O)(=O)c2cccc(C(F)(F)F)n2)C3)c1` [Example 11AE, (R)-(1-(4-fluorophenyl)-6-((6-(trifluoromethyl)pyridin-2-yl)sulfonyl)-4,4a,5,6,7,8-hexahydro-1H-pyrazolo[3,4-g]isoquinolin-4a-yl)(4-methylpyridin-2-yl)methanone] was tested, and the pKi [1, 3] was greater than 7.70 and the pKi [2, 4] was greater than 9.30.

For `O=C(c1ccccn1)[C@]12Cc3cnn(-c4ccc(F)cc4)c3C=C1CCN(S(=O)(=O)c1ccc(Cl)c(Cl)c1)C2` [Example 11AF, (R)-(6-((3,4-dichlorophenyl)sulfonyl)-1-(4-fluorophenyl)-4,4a,5,6,7,8-hexahydro-1H-pyrazolo[3,4-g]isoquinolin-4a-yl)(pyridin-2-yl)methanone], the pKi [1] was greater than 7.70 and the pKi [2] was greater than 9.30.

`Cc1ccnc(C(=O)[C@]23Cc4cnn(-c5ccc(F)cc5)c4C=C2CCN(S(=O)(=O)c2cccc(C(F)(F)F)c2)C3)c1` [Example 11AG, (R)-(1-(4-fluorophenyl)-6-((3-(trifluoromethyl)phenyl)sulfonyl)-4,4a,5,6,7,8-hexahydro-1H-pyrazolo[3,4-g]isoquinolin-4a-yl)(4-methylpyridin-2-yl)methanone] was tested, and the pKi [1, 3] was greater than 7.70 and the pKi [2, 4] was greater than 9.30.

With `CCn1cc(S(=O)(=O)N2CCC3=Cc4c(cnn4-c4ccc(F)cc4)C[C@]3(C(=O)c3cc(C)ccn3)C2)cn1` [Example 11AH, (R)-(6-((1-ethyl-1H-pyrazol-4-yl)sulfonyl)-1-(4-fluorophenyl)-4,4a,5,6,7,8-hexahydro-1H-pyrazolo[3,4-g]isoquinolin-4a-yl)(4-methylpyridin-2-yl)methanone] the pKi [1, 3] was greater than 7.70 and the pKi [2, 4] was greater than 9.30.

In the case of `Cc1ccnc(C(=O)[C@]23Cc4cnn(-c5ccc(F)cc5)c4C=C2CCN(S(=O)(=O)c2cnn(C)c2C)C3)c1` [Example 11AI, (R)-(6-((1,5-dimethyl-1H-pyrazol-4-yl)sulfonyl)-1-(4-fluorophenyl)-4,4a,5,6,7,8-hexahydro-1H-pyrazolo[3,4-g]isoquinolin-4a-yl)(4-methylpyridin-2-yl)methanone], the pKi [1, 3] was greater than 7.70 and the pKi [2, 4] was greater than 9.30.

`Cc1ccnc(C(=O)[C@]23Cc4cnn(-c5ccc(F)cc5)c4C=C2CCN(S(=O)(=O)c2ccnn2C)C3)c1` [Example 11AJ, (R)-(1-(4-fluorophenyl)-6-((1-methyl-1H-pyrazol-5-yl)sulfonyl)-4,4a,5,6,7,8-hexahydro-1H-pyrazolo[3,4-g]isoquinolin-4a-yl)(4-methylpyridin-2-yl)methanone] showed a pKi [1, 3] greater than 7.70 and a pKi [2, 4] greater than 9.30.

`Cc1ccnc(C(=O)[C@]23Cc4cnn(-c5ccc(F)cc5)c4C=C2CCN(S(=O)(=O)c2ccn(C)n2)C3)c1` [Example 11AK, (R)-(1-(4-fluorophenyl)-6-((1-methyl-1H-pyrazol-3-yl)sulfonyl)-4,4a,5,6,7,8-hexahydro-1H-pyrazolo[3,4-g]isoquinolin-4a-yl)(4-methylpyridin-2-yl)methanone] gave a pKi [1, 3] greater than 7.70 and a pKi [2, 4] greater than 9.30.

`Cc1ccnc(C(=O)[C@]23Cc4cnn(-c5ccc(F)cc5)c4C=C2CCN(S(=O)(=O)c2ccc(F)c(C)c2)C3)c1` [Example 11AL, (R)-(6-((4-fluoro-3-methylphenyl)sulfonyl)-1-(4-fluorophenyl)-4,4a,5,6,7,8-hexahydro-1H-pyrazolo[3,4-g]isoquinolin-4a-yl)(4-methylpyridin-2-yl)methanone] showed a pKi [1, 3] greater than 7.70 and a pKi [2, 4] greater than 9.30.

With `Cc1ccnc(C(=O)[C@]23Cc4cnn(-c5ccc(F)cc5)c4C=C2CCN(S(=O)(=O)c2cnc4c(c2)OCCN4C)C3)c1` [Example 11AM, (R)-(1-(4-fluorophenyl)-6-((4-methyl-3,4-dihydro-2H-pyrido[3,2-b][1,4]oxazin-7-yl)sulfonyl)-4,4a,5,6,7,8-hexahydro-1H-pyrazolo[3,4-g]isoquinolin-4a-yl)(4-methylpyridin-2-yl)methanone] the pKi [1, 3] was greater than 7.70 and the pKi [2, 4] was greater than 9.30.
